Reference: patent US7511137B2, “Stereoisomers and stereoisomeric mixtures of 1-(2,4-pyrimidinediamino)-2-cyclopentanecarboxamide synthetic intermediates” (Rigel Pharmaceuticals, Inc., priority 2003, dated 2009)
Entries after “also recorded” stand apart in the source; their conditions may differ. Where two headings read alike, the source gives them in different places.

Tests used:
Assay type in all cases: cell-based
HCT116 (colon/p53wt) = assay: in vitro antiproliferation assay, HCT116; conditions: Homo sapiens, HCT-116; HCT116 colon/p53wt tumor cell line
Protocol: (§1) The four stereoisomers isomers of (1S, 2R)-1-(2,4-pyrimidinediamino)-2-cyclopentanecarboxamide (1), (2), (3) and (4) were prepared as described in Examples 1-4. The racemic mixture of the cis compound was prepared as described herein. The IC50 values of various compounds against different tumor cell lines were determined using standard in vitro antiproliferation assays. The tumor cell lines tested were as follows: A549 (lung); H1299 (lung); DU145 (prostate); HCT116 (colon/p53wt); and mirapaca.

[1] = system: a variety of tumor cell lines; assay: conventional antiproliferative assays, result in words
Protocol: Accordingly, stereoisomers of related 1-(2,4-pyrimidinediamino)-2-cyclopentanecarboxamides are expected to have analogous activity in antiproliferative assays.
as §1

A549 (lung) = assay: in vitro antiproliferation assay, A549; conditions: Homo sapiens; A549 lung tumor cell line
Protocol: as §1

H1299 (lung) = assay: in vitro antiproliferation assay, H1299; conditions: Homo sapiens, NCI-H1299; H1299 lung tumor cell line
Protocol: as §1

DU145 (prostate) = assay: in vitro antiproliferation assay, DU145; conditions: Homo sapiens, DU-145; DU145 prostate tumor cell line
Protocol: as §1

Row | IC50 (HCT116 (colon/p53wt)) | IC50 (A549 (lung)) | IC50 (H1299 (lung)) | IC50 (DU145 (prostate)) | Compound | antiproliferative activity (in words) [1] | antiproliferative activity (in words) ([1]; listed as trans (1S, 2S))
1 | < 0.1 µM | – | – | – | Cc1cc(Nc2ncc(F)c(N[C@@H]3CCC[C@@H]3C(N)=O)n2)ccc1N1CCN(C)CC1 [Compound 1, (1S, 2R)-1-(2,4-pyrimidinediamino)-2-cyclopentanecarboxamide] | antiproliferative activity; also recorded: active | –
2 | – | < 5 µM | < 10 µM | – | Cc1cc(Nc2ncc(F)c(N[C@H]3CCC[C@H]3C(N)=O)n2)ccc1N1CCN(C)CC1 [Compound 2, (1R, 2S)-1-(2,4-pyrimidinediamino)-2-cyclopentanecarboxamide] | antiproliferative activity; also recorded: active | –
3 | – | > 20 µM | > 20 µM | – | Cc1cc(Nc2ncc(F)c(N[C@H]3CCC[C@@H]3C(N)=O)n2)ccc1N1CCN(C)CC1 [Compound 3, (1S, 2S)-1-(2,4-pyrimidinediamino)-2-cyclopentanecarboxamide] | antiproliferative activity | inactive
4 | < 5 µM | < 5 µM | < 5 µM | < 5 µM | Cc1cc(Nc2ncc(F)c(N[C@@H]3CCC[C@H]3C(N)=O)n2)ccc1N1CCN(C)CC1 [Compound 4, (1R, 2R)-1-(2,4-pyrimidinediamino)-2-cyclopentanecarboxamide] | active | –
